In article PMC4446623, “Tackling the Cytotoxic Effect of a Marine Polycyclic Quinone-Type Metabolite: Halenaquinone Induces Molt 4 Cells Apoptosis via Oxidative Stress Combined with the Inhibition of HDAC and Topoisomerase Activities” (Marine Drugs, 2015):

Columns and labels:
topo IIα = target: T1, topo IIα (Homo sapiens, UniProt P11388); assay: cell-free relaxation assay of supercoiled pHOT1 plasmid DNA with purified human topo II, agarose gel; assay type: biochemical
T1 construct: gene TOP2A

topo I = target: T2, topo I (Homo sapiens, UniProt P11387); assay: cell-free relaxation assay of supercoiled pHOT1 plasmid DNA with purified human topo I, agarose gel; assay type: biochemical
T2 construct: gene TOP1
T2 sequence (P11387 2-765): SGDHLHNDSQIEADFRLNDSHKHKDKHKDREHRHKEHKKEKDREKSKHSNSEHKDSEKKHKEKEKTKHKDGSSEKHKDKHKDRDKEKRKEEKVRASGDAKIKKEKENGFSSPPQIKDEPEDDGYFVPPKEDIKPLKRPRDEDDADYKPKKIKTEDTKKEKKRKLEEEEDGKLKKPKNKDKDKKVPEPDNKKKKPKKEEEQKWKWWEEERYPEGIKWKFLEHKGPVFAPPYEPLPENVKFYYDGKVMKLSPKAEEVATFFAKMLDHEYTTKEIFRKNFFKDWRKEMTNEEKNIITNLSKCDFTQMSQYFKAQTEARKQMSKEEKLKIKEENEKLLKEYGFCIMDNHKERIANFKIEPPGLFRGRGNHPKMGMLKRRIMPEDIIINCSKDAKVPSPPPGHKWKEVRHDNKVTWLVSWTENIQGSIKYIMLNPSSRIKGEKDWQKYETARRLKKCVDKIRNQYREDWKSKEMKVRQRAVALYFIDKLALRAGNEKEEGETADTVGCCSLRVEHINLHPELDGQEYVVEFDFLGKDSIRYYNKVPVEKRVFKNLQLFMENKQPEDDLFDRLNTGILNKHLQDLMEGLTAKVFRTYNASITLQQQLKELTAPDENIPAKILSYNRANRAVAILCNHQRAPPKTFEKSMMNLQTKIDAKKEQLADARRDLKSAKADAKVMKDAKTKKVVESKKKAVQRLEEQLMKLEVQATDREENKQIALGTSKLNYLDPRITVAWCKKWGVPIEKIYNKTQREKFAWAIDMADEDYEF

T1 sequence (P11388 whole entry): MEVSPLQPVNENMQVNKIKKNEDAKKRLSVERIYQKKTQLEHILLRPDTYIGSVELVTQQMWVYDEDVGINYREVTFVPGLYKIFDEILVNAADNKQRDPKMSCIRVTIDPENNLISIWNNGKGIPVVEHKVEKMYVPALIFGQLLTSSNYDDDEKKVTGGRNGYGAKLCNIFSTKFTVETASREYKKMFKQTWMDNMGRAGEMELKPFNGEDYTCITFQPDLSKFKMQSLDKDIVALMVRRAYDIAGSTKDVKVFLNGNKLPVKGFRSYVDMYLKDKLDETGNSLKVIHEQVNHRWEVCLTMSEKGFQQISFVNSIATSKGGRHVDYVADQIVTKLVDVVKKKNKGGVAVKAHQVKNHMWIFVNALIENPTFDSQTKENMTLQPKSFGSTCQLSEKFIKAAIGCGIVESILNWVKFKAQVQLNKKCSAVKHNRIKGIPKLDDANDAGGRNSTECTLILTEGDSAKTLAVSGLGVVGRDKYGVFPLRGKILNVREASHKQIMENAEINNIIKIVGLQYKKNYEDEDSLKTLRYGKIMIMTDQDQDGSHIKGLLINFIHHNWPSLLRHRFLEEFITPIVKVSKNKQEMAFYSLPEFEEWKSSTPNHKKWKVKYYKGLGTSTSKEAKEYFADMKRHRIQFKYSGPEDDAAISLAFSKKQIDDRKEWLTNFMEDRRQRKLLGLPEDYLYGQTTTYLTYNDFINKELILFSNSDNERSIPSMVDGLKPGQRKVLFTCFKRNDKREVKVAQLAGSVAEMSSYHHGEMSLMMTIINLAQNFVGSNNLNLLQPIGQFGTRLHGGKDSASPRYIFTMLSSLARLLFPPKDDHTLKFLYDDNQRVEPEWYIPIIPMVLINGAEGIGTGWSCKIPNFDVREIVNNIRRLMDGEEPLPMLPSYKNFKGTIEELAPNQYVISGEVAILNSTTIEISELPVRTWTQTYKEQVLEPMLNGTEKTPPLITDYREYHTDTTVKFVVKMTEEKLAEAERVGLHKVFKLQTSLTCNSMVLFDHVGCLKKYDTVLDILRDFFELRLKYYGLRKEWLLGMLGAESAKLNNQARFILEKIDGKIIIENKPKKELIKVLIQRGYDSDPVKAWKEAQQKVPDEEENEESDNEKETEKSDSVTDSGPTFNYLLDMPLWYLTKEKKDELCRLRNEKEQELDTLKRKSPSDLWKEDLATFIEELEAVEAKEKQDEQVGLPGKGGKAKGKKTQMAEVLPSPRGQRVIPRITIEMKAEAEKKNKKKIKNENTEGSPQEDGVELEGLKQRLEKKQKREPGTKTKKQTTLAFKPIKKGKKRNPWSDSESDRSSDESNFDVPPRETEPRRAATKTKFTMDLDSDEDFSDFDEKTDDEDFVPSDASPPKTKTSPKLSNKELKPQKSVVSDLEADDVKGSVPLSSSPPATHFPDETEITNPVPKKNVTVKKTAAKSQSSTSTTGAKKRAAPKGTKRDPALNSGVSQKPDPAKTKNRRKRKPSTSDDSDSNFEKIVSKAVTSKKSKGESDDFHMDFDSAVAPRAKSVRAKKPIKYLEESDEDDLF

C[C@@]12CCC(=O)c3coc(c31)C(=O)c1cc3c(cc12)C(=O)C=CC3=O [HQ, halenaquinone]
IC50 (topo IIα): 16.6 nM | IC50 (topo I): 3.58 µM
